Data taken from ChEMBL document CHEMBL1140619.
Square brackets hold non-standard residues; d marks the D form. Peptide text beside a SMILES is read from it. * marks the point of attachment. Tyr(Nα,Nα-allyl2) = C=CCN(CC=C)[C@@H](Cc1ccc(O)cc1)C(=O)*; Aib = CC(C)(N)C(=O)O

What follows are molecules tested against Delta-type opioid receptor (Rattus norvegicus) (UniProt P33533) (assay: Agonist activity at rat delta opioid receptor expressed in C6 cells assessed as stimulation of [35S]GTP-gamma-S binding relative to BW373U86).
Delta-type opioid receptor (Rattus norvegicus), sequence (P33533 whole entry): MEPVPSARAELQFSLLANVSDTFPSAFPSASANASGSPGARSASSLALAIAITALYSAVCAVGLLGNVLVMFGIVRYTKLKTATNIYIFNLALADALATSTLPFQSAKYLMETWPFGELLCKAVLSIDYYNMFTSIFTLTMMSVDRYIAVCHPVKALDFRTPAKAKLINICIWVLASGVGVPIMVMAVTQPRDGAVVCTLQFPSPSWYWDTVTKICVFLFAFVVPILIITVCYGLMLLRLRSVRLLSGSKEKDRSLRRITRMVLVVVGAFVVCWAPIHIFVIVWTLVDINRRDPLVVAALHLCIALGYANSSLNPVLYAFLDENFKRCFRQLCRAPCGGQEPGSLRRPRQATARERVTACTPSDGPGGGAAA
Format: functional, cell-based
For `CN1CC[C@]23c4c5ccc(O)c4O[C@H]2C(=O)C2(Cc4ccccc4C2)C[C@@]3(O)[C@H]1C5`, the Activity was 0.18. `CC(C)[C@H](NC(=O)[C@H](CC(=O)O)NC(=O)[C@H](Cc1ccccc1)NC(=O)[C@@H](C)NC(=O)[C@@H](N)Cc1ccc(O)cc1)C(=O)N[C@H](C(=O)NCC(N)=O)C(C)C` was tested, and the Activity was 0.59. `C=CCN(CC=C)[C@@H](Cc1ccc(O)cc1)C(=O)NC(C)(C)C(=O)NC(C)(C)C(=O)N[C@@H](Cc1ccccc1)C(=O)N[C@@H](CC(C)C)C(=O)O` ({Tyr(Nα,Nα-allyl2)}-[Aib][Aib]FL-OH) showed an Activity of 0. `CC(C)C[C@H](NC(=O)[C@H](Cc1ccccc1)NC(=O)CNC(=O)[C@@H](CO)NC(=O)[C@@H](N)Cc1ccc(O)cc1)C(=O)N[C@H](C(=O)O)[C@@H](C)O` gave an Activity of 0.9. Work on `CC1(C)SSC(C)(C)C(NC(=O)[C@@H](N)Cc2ccc(O)cc2)C(=O)NCC(=O)N[C@@H](Cc2ccc(Cl)cc2)C(=O)NC1C(=O)O` (stereo in doubt) yielded an Activity of 0.8. `Oc1ccc2c3c1O[C@H]1c4[nH]c5ccccc5c4C[C@@]4(O)[C@@H](C2)N(CC2CC2)CC[C@]314` showed an Activity of 0. For `C=CCN1C[C@H](C)N([C@H](c2ccc(C(=O)N(CC)CC)cc2)c2cccc(OC)c2)C[C@H]1C`, the Activity was 1.02. With `CN1CC[C@]23c4c5ccc(O)c4O[C@H]2c2[nH]c4ccccc4c2C[C@@]3(O)[C@H]1C5` the Activity was 0.12.

Each molecule was assayed against Delta-type opioid receptor (Rattus norvegicus) (UniProt P33533) (assay: Displacement of [3H]naltrindole from rat delta opioid receptor expressed in C6 cells).
Format: cell-based
With `CN1CC[C@]23c4c5ccc(O)c4O[C@H]2C(=O)C2(Cc4ccccc4C2)C[C@@]3(O)[C@H]1C5` the Activity was 8.4 nM. With `CC(C)[C@H](NC(=O)[C@H](CC(=O)O)NC(=O)[C@H](Cc1ccccc1)NC(=O)[C@@H](C)NC(=O)[C@@H](N)Cc1ccc(O)cc1)C(=O)N[C@H](C(=O)NCC(N)=O)C(C)C` the Activity was 81 nM. Molecule `C=CCN(CC=C)[C@@H](Cc1ccc(O)cc1)C(=O)NC(C)(C)C(=O)NC(C)(C)C(=O)N[C@@H](Cc1ccccc1)C(=O)N[C@@H](CC(C)C)C(=O)O` ({Tyr(Nα,Nα-allyl2)}-[Aib][Aib]FL-OH) has an Activity of 37 nM. `CC(C)C[C@H](NC(=O)[C@H](Cc1ccccc1)NC(=O)CNC(=O)[C@@H](CO)NC(=O)[C@@H](N)Cc1ccc(O)cc1)C(=O)N[C@H](C(=O)O)[C@@H](C)O` was tested, and the Activity was 93 nM. In the case of `CC1(C)SSC(C)(C)C(NC(=O)[C@@H](N)Cc2ccc(O)cc2)C(=O)NCC(=O)N[C@@H](Cc2ccc(Cl)cc2)C(=O)NC1C(=O)O` (stereo in doubt), the Activity was 135 nM. With `C=CCN1C[C@H](C)N([C@H](c2ccc(C(=O)N(CC)CC)cc2)c2cccc(O)c2)C[C@H]1C` the Activity was 0.45 nM. Molecule `C=CCN1C[C@H](C)N([C@H](c2ccc(C(=O)N(CC)CC)cc2)c2cccc(OC)c2)C[C@H]1C` has an Activity of 60 nM. `Oc1ccc2c3c1O[C@H]1c4oc5ccccc5c4C[C@@]4(O)[C@@H](C2)N(CC2CC2)CC[C@]314` was tested, and the Activity was 0.037 nM. `CN1CC[C@]23c4c5ccc(O)c4O[C@H]2c2[nH]c4ccccc4c2C[C@@]3(O)[C@H]1C5` showed an Activity of 6.5 nM. Work on `O=C1/C(=C/c2ccccc2)C[C@@]2(O)[C@H]3Cc4ccc(O)c5c4[C@@]2(CCN3CC2CC2)[C@H]1O5` yielded an Activity of 0.079 nM.
